Here are results for 36 compounds from ChEMBL document CHEMBL6120971 (J Med Chem, 2024).

One may read the IC50 as the concentration that gives 50% inhibition.

Activity calls are given as the source filed them. The calls are words filed in the database; no cut-off is given here.

Test [1] deals with T1, von Hippel-Lindau disease tumor suppressor/Hepatocyte growth factor receptor (Homo sapiens, UniProt P08581+P40337). As to the kind of experiment: PROTAC activity at VHL/c-MET in human MKN-45 cells assessed as induction of c-MET degradation by measuring residual activity at 100 nM incubated for 24 hrs by Western blot analysis (reference value: 100 %). It is filed as cell-based. For orientation: Immunoblotting shows a protein as a band on a membrane.
Target sequence in this assay (P40337 whole entry partner): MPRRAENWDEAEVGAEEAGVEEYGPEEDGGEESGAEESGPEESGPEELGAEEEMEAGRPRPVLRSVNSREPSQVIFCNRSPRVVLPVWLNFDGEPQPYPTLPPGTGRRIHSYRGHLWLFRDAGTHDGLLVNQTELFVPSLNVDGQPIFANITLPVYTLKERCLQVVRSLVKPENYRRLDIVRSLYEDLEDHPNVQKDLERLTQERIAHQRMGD
Target sequence in this assay (P08581 25-1390 limits assumed): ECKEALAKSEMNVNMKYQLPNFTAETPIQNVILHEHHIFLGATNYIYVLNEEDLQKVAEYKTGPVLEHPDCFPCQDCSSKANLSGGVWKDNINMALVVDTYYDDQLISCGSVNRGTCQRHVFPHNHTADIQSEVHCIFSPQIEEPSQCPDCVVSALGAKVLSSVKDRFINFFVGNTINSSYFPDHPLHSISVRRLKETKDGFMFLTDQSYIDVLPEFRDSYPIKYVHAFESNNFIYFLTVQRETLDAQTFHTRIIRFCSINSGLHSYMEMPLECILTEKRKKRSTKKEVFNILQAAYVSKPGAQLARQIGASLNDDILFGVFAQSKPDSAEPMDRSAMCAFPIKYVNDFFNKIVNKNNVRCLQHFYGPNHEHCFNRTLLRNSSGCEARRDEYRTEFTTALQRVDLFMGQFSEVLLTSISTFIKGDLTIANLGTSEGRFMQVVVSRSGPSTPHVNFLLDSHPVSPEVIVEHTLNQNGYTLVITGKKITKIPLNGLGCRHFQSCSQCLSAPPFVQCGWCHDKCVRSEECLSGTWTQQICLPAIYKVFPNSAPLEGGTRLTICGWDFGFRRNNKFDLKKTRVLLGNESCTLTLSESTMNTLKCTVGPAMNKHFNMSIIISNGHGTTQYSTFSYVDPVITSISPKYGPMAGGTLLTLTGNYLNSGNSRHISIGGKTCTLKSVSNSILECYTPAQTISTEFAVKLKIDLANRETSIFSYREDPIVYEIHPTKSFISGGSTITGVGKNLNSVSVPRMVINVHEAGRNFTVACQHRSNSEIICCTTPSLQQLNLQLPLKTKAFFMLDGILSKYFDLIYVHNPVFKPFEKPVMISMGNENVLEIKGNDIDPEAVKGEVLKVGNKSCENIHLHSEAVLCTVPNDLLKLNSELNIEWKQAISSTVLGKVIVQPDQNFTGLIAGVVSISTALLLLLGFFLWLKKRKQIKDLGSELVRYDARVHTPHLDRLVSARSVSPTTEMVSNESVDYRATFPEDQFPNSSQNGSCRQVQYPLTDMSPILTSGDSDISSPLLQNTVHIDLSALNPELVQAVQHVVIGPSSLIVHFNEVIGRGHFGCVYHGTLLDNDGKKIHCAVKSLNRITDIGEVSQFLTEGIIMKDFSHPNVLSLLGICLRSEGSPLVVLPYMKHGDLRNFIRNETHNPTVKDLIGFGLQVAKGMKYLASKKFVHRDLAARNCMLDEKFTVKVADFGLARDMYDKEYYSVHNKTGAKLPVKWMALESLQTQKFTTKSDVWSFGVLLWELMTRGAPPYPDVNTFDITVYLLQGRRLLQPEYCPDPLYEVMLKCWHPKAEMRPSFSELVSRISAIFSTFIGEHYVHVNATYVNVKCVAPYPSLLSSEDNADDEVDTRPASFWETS

Test [2] relates to MKN-45. As to the kind of experiment: Induction of c-MET degradation in human MKN-45 cells assessed as residual activity at 100 nM incubated for 24 hrs by Western blot analysis (reference value: 100 %). It is filed as cell-based.
Test [3] concerns MKN-45. As to the kind of experiment: Antiproliferative activity against human MKN-45 cells incubated for 72 hrs by CCK8 assay. It is filed as functional, cell-based. Conditions: MKN-45, 72 h. A general note: Tetrazolium dyes change colour on reduction, which living cells bring about.
Test [4] deals with T1, von Hippel-Lindau disease tumor suppressor/Hepatocyte growth factor receptor. The test is described as follows: PROTAC activity at VHL/c-MET (unknown origin). It is filed as protein.
Target sequence in this assay (P08581 whole entry): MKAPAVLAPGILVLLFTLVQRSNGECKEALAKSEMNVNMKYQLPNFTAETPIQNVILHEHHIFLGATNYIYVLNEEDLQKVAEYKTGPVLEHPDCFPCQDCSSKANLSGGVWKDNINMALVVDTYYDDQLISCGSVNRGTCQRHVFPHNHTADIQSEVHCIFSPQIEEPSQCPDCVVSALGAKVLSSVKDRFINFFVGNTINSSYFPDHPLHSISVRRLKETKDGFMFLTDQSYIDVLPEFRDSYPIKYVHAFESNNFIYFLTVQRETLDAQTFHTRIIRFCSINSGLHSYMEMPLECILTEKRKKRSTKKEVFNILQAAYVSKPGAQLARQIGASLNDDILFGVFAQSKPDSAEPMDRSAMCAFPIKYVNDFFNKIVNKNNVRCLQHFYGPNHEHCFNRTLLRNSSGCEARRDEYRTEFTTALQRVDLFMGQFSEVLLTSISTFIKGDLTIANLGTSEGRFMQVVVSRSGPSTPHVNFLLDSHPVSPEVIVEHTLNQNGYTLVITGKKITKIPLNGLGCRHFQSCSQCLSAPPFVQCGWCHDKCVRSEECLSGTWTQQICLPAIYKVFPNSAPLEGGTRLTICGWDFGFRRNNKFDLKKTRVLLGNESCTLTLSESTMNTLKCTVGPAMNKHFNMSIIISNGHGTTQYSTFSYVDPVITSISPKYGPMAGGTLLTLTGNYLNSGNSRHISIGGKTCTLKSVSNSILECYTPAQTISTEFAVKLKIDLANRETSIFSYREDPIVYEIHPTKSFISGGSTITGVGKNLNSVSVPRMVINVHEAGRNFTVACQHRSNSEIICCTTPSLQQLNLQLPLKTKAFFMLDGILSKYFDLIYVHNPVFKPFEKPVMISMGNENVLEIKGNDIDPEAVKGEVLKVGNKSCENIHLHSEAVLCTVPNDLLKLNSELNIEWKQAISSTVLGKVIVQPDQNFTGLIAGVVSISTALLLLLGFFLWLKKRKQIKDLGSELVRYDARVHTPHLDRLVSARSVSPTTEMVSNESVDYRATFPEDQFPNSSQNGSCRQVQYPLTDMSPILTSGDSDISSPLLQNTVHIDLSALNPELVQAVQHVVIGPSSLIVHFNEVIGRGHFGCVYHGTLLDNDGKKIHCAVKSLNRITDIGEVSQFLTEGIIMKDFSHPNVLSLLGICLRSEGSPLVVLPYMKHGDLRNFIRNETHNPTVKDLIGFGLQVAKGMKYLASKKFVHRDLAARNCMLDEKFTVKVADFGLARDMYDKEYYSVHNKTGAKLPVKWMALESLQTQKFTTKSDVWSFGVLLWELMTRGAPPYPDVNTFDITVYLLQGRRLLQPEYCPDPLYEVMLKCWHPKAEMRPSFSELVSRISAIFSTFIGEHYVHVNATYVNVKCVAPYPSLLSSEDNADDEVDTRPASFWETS
Target sequence in this assay (P40337 whole entry): as the sequence (P40337 whole entry partner) above
Test [5] concerns the target Protein cereblon/Hepatocyte growth factor receptor (Homo sapiens, UniProt P08581+Q96SW2). The test is described as follows: PROTAC activity at CRBN/c-MET in human MKN-45 cells assessed as induction of c-MET degradation at 1000 nM incubated for 24 hrs by Western blot analysis. It is filed as cell-based.
Test [6] addresses T1, von Hippel-Lindau disease tumor suppressor/Hepatocyte growth factor receptor. The test is described as follows: PROTAC activity at VHL/c-MET in human MKN-45 cells assessed as induction of c-MET degradation at 100 to 1000 nM incubated for 24 hrs by Western blot analysis relative to control. The class given is cell-based. The settings on record: dose 100-1000 nM.
Target sequence in this assay (P40337 whole entry partner): as above
Target sequence in this assay (P08581 25-1390 limits assumed): as the sequence (P08581 25-1390 limits assumed) above

Protein cereblon/Hepatocyte growth factor receptor, sequence (P08581 25-1390 limits assumed): as above
Protein cereblon/Hepatocyte growth factor receptor, sequence (Q96SW2 whole entry partner): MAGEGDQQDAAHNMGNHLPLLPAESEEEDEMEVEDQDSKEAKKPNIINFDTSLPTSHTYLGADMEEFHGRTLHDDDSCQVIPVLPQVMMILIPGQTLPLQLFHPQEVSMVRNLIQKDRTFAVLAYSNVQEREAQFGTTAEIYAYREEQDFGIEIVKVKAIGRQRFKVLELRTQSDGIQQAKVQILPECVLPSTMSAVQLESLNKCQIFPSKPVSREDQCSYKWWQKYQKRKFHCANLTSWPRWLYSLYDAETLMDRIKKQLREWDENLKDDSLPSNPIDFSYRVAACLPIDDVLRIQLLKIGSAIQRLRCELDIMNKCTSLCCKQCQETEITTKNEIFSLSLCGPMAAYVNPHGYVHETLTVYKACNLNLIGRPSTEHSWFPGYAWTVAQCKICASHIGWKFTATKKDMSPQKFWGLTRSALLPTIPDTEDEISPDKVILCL

In the case of `Cc1ncsc1-c1ccc([C@H](C)NC(=O)[C@@H]2C[C@@H](O)CN2C(=O)[C@@H](NC(=O)CN2CCN(CCCC(=O)N3CCC(n4cc(-c5cnc(N)c(O[C@H](C)c6c(Cl)ccc(F)c6Cl)c5)cn4)CC3)CC2)C(C)(C)C)cc1`, the Activity in test [1] turned out to be 111%.
Same read-out and setting: the figure for `Cc1ncsc1-c1ccc([C@H](C)NC(=O)[C@@H]2C[C@@H](O)CN2C(=O)[C@@H](NC(=O)CCOCCOCCC(=O)N2CCC(COc3cnc(-c4cccc(Cn5nc(-c6cccc(C#N)c6)ccc5=O)c4)nc3)CC2)C(C)(C)C)cc1` is 66%; for `Cc1ncsc1-c1ccc([C@H](C)NC(=O)[C@@H]2C[C@@H](O)CN2C(=O)[C@@H](NC(=O)CN2CCN(CCNC(=O)c3ccc(-c4cnc5ncc(Cc6ccc7ncccc7c6)n5n4)cc3F)CC2)C(C)(C)C)cc1` it is 61%.
For `Cc1ncsc1-c1ccc([C@H](C)NC(=O)[C@@H]2C[C@@H](O)CN2C(=O)[C@@H](NC(=O)CN2CCN(CCCCNC(=O)c3ccc(-c4cnc5ncc(Cc6ccc7ncccc7c6)n5n4)cc3F)CC2)C(C)(C)C)cc1`, the Activity in test [1] was 78%.
As to `C[C@@H](Oc1cc(-c2cnn(C3CCNCC3)c2)cnc1N)c1c(Cl)ccc(F)c1Cl`, the Activity in the test on MKN-45 [2] came to 110%.
As to `Cc1ncsc1-c1ccc([C@H](C)NC(=O)[C@@H]2C[C@@H](O)CN2C(=O)[C@@H](NC(=O)CCOCCOCCOCCC(=O)N2CCC(COc3cnc(-c4cccc(Cn5nc(-c6cccc(C#N)c6)ccc5=O)c4)nc3)CC2)C(C)(C)C)cc1`, the Activity in test [1] was 56%.
In the test with MKN-45 [3], `Cc1ncsc1-c1ccc([C@H](C)NC(=O)[C@@H]2C[C@@H](O)CN2C(=O)[C@@H](NC(=O)CCCCCCC(=O)N2CCC(COc3cnc(-c4cccc(Cn5nc(-c6cccc(C#N)c6)ccc5=O)c4)nc3)CC2)C(C)(C)C)cc1` displayed an IC50 of 35.5 nM. Further, in test [1], the Activity came to 64%.
As to `COc1cc2c(Oc3ccc(NC(=O)C4(C(=O)Nc5ccc(F)cc5)CC4)cc3F)ccnc2cc1OCCCOCCCOCCC(=O)N[C@H](C(=O)N1C[C@H](O)C[C@H]1C(=O)NCc1ccc(-c2scnc2C)cc1)C(C)(C)C`, the DC50 in test [4] was > 10 nM.
For the compound `Cc1ncsc1-c1ccc([C@H](C)NC(=O)[C@@H]2C[C@@H](O)CN2C(=O)[C@@H](NC(=O)COCCOCCNC(=O)c2ccc(-c3cnc4ncc(Cc5ccc6ncccc6c5)n4n3)cc2F)C(C)(C)C)cc1`, the Activity in test [1] was found to be 70%.
As to `Cc1ncsc1-c1ccc([C@H](C)NC(=O)[C@@H]2C[C@@H](O)CN2C(=O)[C@@H](NC(=O)CCCCC(=O)N2CCC(COc3cnc(-c4cccc(Cn5nc(-c6cccc(C#N)c6)ccc5=O)c4)nc3)CC2)C(C)(C)C)cc1`, the IC50 with MKN-45 [3] is > 200 nM. Moreover, in test [1], the Activity was found to be 74%.
`Cc1ncsc1-c1ccc([C@H](C)NC(=O)[C@@H]2C[C@@H](O)CN2C(=O)[C@@H](NC(=O)CCCCCNC(=O)c2ccc(-c3cnc4ncc(Cc5ccc6ncccc6c5)n4n3)cc2F)C(C)(C)C)cc1`: the IC50 in the test on MKN-45 [3] worked out at 74.9 nM. The Activity in test [1] worked out at 68%.
Take `Cc1ncsc1-c1ccc([C@H](C)NC(=O)[C@@H]2C[C@@H](O)CN2C(=O)[C@@H](NC(=O)CCCCCCCCCCCNC(=O)c2ccc(-c3cnc4ncc(Cc5ccc6ncccc6c5)n4n3)cc2F)C(C)(C)C)cc1`: in the test on MKN-45 [3], half-maximal inhibition (IC50) required 29.1 nM. Moreover, the Activity in test [1] was found to be 51%.
`O=C(COc1cccc2c1C(=O)N(C1CCC(=O)NC1=O)C2=O)NCCCCCCCCNC(=O)c1ccc(-c2cnc3ncc(Cc4ccc5ncccc5c4)n3n2)cc1F` (centres undefined): the outcome in test [5] was inactive. The same compound came in with an IC50 in the test with MKN-45 [3] of 15.3 nM.
Turning to `Cc1ncsc1-c1ccc([C@H](C)NC(=O)[C@@H]2C[C@@H](O)CN2C(=O)[C@@H](NC(=O)CN2CCN(CC(=O)N3CCC(COc4cnc(-c5cccc(Cn6nc(-c7cccc(C#N)c7)ccc6=O)c5)nc4)CC3)CC2)C(C)(C)C)cc1`, the Activity in test [1] was 40%.
For the compound `Cc1ncsc1-c1ccc([C@H](C)NC(=O)[C@@H]2C[C@@H](O)CN2C(=O)[C@@H](NC(=O)CCOCCOCCOCCC(=O)N2CCC(n3cc(-c4cnc(N)c(O[C@H](C)c5c(Cl)ccc(F)c5Cl)c4)cn3)CC2)C(C)(C)C)cc1`, in test [1], the Activity was determined as 106%.
For `O=C(COc1cccc2c1C(=O)N(C1CCC(=O)NC1=O)C2=O)NCCCCCCCCCCNC(=O)c1ccc(-c2cnc3ncc(Cc4ccc5ncccc5c4)n3n2)cc1F` (centres undefined), the outcome in test [5] was inactive. In the test on MKN-45 [3], this compound registered an IC50 of 27.3 nM.
`Cc1ncsc1-c1ccc([C@H](C)NC(=O)[C@@H]2C[C@@H](O)CN2C(=O)[C@@H](NC(=O)CCCCCCCNC(=O)c2ccc(-c3cnc4ncc(Cc5ccc6ncccc6c5)n4n3)cc2F)C(C)(C)C)cc1`: the Activity is > 80% in test [6] and 19% in test [1]. The same compound had an IC50 with MKN-45 [3] of 52.3 nM.
For the compound `Cc1ncsc1-c1ccc([C@H](C)NC(=O)[C@@H]2C[C@@H](O)CN2C(=O)[C@@H](NC(=O)CCCCCCCCCCC(=O)N2CCC(COc3cnc(-c4cccc(Cn5nc(-c6cccc(C#N)c6)ccc5=O)c4)nc3)CC2)C(C)(C)C)cc1`, the IC50 in the test with MKN-45 [3] is 149 nM. Also, in test [1], the Activity is 56%.
In the case of `CN1CCC(COc2cnc(-c3cccc(Cn4nc(-c5cccc(C#N)c5)ccc4=O)c3)nc2)CC1`, in the test with MKN-45 [2], the Activity was 107%.
As for `Cc1ncsc1-c1ccc([C@H](C)NC(=O)[C@@H]2C[C@@H](O)CN2C(=O)[C@@H](NC(=O)CCOCCOCCC(=O)N2CCC(n3cc(-c4cnc(N)c(O[C@H](C)c5c(Cl)ccc(F)c5Cl)c4)cn3)CC2)C(C)(C)C)cc1`, the Activity in test [1] was 107%.
Same read-out and setting: as for `Cc1ncsc1-c1ccc([C@H](C)NC(=O)[C@@H]2C[C@@H](O)CN2C(=O)[C@@H](NC(=O)COCCOCCOCCNC(=O)c2ccc(-c3cnc4ncc(Cc5ccc6ncccc6c5)n4n3)cc2F)C(C)(C)C)cc1`, the figure is 73%.
Consider `Cc1ncsc1-c1ccc([C@H](C)NC(=O)[C@@H]2C[C@@H](O)CN2C(=O)[C@@H](NC(=O)CN2CCN(CCCC(=O)N3CCC(COc4cnc(-c5cccc(Cn6nc(-c7cccc(C#N)c7)ccc6=O)c5)nc4)CC3)CC2)C(C)(C)C)cc1`, for which the Activity in test [1] was 61%.
For `Cc1ncsc1-c1ccc([C@H](C)NC(=O)[C@@H]2C[C@@H](O)CN2C(=O)[C@@H](NC(=O)CCCCCCCCNC(=O)c2ccc(-c3cnc4ncc(Cc5ccc6ncccc6c5)n4n3)cc2F)C(C)(C)C)cc1`, in the test with MKN-45 [3], it took 44.7 nM to reach half-maximal inhibition (IC50).
In the case of `Cc1ncsc1-c1ccc([C@H](C)NC(=O)[C@@H]2C[C@@H](O)CN2C(=O)[C@@H](NC(=O)CN2CCN(CCCCCC(=O)N3CCC(n4cc(-c5cnc(N)c(O[C@H](C)c6c(Cl)ccc(F)c6Cl)c5)cn4)CC3)CC2)C(C)(C)C)cc1`, the Activity in test [1] came to 115%.
Consider `Cc1ncsc1-c1ccc([C@H](C)NC(=O)[C@@H]2C[C@@H](O)CN2C(=O)[C@@H](NC(=O)COCCOCCOCCOCCNC(=O)c2ccc(-c3cnc4ncc(Cc5ccc6ncccc6c5)n4n3)cc2F)C(C)(C)C)cc1`, for which the Activity in test [1] came to 75%.
Take `Cc1ncsc1-c1ccc([C@H](C)NC(=O)[C@@H]2C[C@@H](O)CN2C(=O)[C@@H](NC(=O)CN2CCN(CC(=O)N3CCC(n4cc(-c5cnc(N)c(O[C@H](C)c6c(Cl)ccc(F)c6Cl)c5)cn4)CC3)CC2)C(C)(C)C)cc1`: the Activity in test [1] stood at 123%.
Still for that read-out and setting: the figure for `Cc1ncsc1-c1ccc([C@H](C)NC(=O)[C@@H]2C[C@@H](O)CN2C(=O)[C@@H](NC(=O)CCOCCOCCOCCOCCC(=O)N2CCC(n3cc(-c4cnc(N)c(O[C@H](C)c5c(Cl)ccc(F)c5Cl)c4)cn3)CC2)C(C)(C)C)cc1` is 127%; for `Cc1ncsc1-c1ccc([C@H](C)NC(=O)[C@@H]2C[C@@H](O)CN2C(=O)[C@@H](NC(=O)CN2CCN(CCCCCC(=O)N3CCC(COc4cnc(-c5cccc(Cn6nc(-c7cccc(C#N)c7)ccc6=O)c5)nc4)CC3)CC2)C(C)(C)C)cc1` it is 71%.
Take `Cc1ncsc1-c1ccc([C@H](C)NC(=O)[C@@H]2C[C@@H](O)CN2C(=O)[C@@H](NC(=O)CCCCCCCCCNC(=O)c2ccc(-c3cnc4ncc(Cc5ccc6ncccc6c5)n4n3)cc2F)C(C)(C)C)cc1`: the IC50 with MKN-45 [3] amounted to 20.5 nM. Also, the Activity in test [1] turned out to be 22%.
The matching figures for `Cc1ncsc1-c1ccc([C@H](C)NC(=O)[C@@H]2C[C@@H](O)CN2C(=O)[C@@H](NC(=O)CCCCCCC(=O)N2CCC(n3cc(-c4cnc(N)c(O[C@H](C)c5c(Cl)ccc(F)c5Cl)c4)cn3)CC2)C(C)(C)C)cc1`: > 200 nM and 78%.
On to `Cc1ncsc1-c1ccc([C@H](C)NC(=O)[C@@H]2C[C@@H](O)CN2C(=O)[C@@H](NC(=O)CCCCCCNC(=O)c2ccc(-c3cnc4ncc(Cc5ccc6ncccc6c5)n4n3)cc2F)C(C)(C)C)cc1`, for which the IC50 in the test on MKN-45 [3] was > 200 nM.
On to `Cc1ncsc1-c1ccc([C@H](C)NC(=O)[C@@H]2C[C@@H](O)CN2C(=O)[C@@H](NC(=O)CCCCCCCCCCC(=O)N2CCC(n3cc(-c4cnc(N)c(O[C@H](C)c5c(Cl)ccc(F)c5Cl)c4)cn3)CC2)C(C)(C)C)cc1`, for which, in the test on MKN-45 [3], the IC50 was > 200 nM. In addition, the Activity in test [1] came to 73%.
`Cc1ncsc1-c1ccc([C@H](C)NC(=O)[C@@H]2C[C@@H](O)CN2C(=O)[C@@H](NC(=O)CCOCCOCCOCCOCCC(=O)N2CCC(COc3cnc(-c4cccc(Cn5nc(-c6cccc(C#N)c6)ccc5=O)c4)nc3)CC2)C(C)(C)C)cc1`: the Activity in test [1] turned out to be 62%.
Consider `Cc1ncsc1-c1ccc([C@H](C)NC(=O)[C@@H]2C[C@@H](O)CN2C(=O)[C@@H](NC(=O)CCCCC(=O)N2CCC(n3cc(-c4cnc(N)c(O[C@H](C)c5c(Cl)ccc(F)c5Cl)c4)cn3)CC2)C(C)(C)C)cc1`, for which, in the test on MKN-45 [3], the IC50 is > 200 nM. Further, the Activity in test [1] was 100%.
`Cc1ncsc1-c1ccc([C@H](C)NC(=O)[C@@H]2C[C@@H](O)CN2C(=O)[C@@H](NC(=O)CCCCCCCCCCNC(=O)c2ccc(-c3cnc4ncc(Cc5ccc6ncccc6c5)n4n3)cc2F)C(C)(C)C)cc1` had an IC50 in the test with MKN-45 [3] of 47.8 nM.
Take `Cc1ncsc1-c1ccc([C@H](C)NC(=O)[C@@H]2C[C@@H](O)CN2C(=O)[C@@H](NC(=O)CN2CCN(CCCCCCNC(=O)c3ccc(-c4cnc5ncc(Cc6ccc7ncccc7c6)n5n4)cc3F)CC2)C(C)(C)C)cc1`: the Activity in test [1] turned out to be 79%.
